Experimental data taken from US20180194762A1 (Pharmacyclics LLC, priority 2017, published 2018).

Tests used:
Assay type in all cases: biochemical
panel of kinases = molecular target: T1, panel of kinases (Homo sapiens, UniProt P51813); assay: Inhibition of a panel of kinases (in vitro HotSpot kinase assay, 33P-ATP, 1 μM ATP), other kinases; settings: BMX wild-type, read-out: BMX-WT IC50
T1 sequence (P51813 1-675): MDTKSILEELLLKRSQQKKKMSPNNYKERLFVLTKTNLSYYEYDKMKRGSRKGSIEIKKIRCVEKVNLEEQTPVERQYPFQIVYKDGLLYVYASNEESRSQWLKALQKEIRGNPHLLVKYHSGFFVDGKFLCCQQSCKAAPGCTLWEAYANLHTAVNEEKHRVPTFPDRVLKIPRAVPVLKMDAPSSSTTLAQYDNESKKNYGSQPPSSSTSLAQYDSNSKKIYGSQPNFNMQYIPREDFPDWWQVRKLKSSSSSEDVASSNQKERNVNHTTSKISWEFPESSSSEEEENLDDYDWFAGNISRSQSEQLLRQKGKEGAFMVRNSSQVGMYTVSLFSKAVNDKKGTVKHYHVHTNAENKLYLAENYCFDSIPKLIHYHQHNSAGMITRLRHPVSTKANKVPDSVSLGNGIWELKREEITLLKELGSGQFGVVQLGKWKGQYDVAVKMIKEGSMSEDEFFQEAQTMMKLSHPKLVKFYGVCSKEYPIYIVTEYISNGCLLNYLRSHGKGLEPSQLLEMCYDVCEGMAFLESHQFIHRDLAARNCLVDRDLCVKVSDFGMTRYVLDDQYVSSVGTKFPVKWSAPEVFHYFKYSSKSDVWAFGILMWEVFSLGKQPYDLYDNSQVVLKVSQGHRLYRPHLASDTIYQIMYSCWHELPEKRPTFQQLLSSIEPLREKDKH
How it was run: (§1)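 At 1 μM ATP spiked with 33P-ATP, substrate phosphorylation by the purified enzymes gives the extent of inhibition.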

Btk = molecular target: T2, Btk (Homo sapiens, UniProt Q06187); assay: Btk in vitro inhibitory activity (one of Method A TR-FRET, Method B electrophoretic mobility shift, Method C radiometric filter binding); settings: wild-type Btk; read-out: Btk-WT IC50
T2 construct: purified from insect cells as a full-length construct containing a N-terminal 6X-His tag; His6 (N); made in house; host or cells: insect cells (Method C)
How it was run: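 Three alternative formats were used. A radiometric filter-binding read used 8 nM full-length His-BTK with 0.2 mg/mL poly(Glu-Tyr) 4:1 (C); microfluidic separation of 1 μM FAM-peptide by 1 nM BTK gave IC50 from 12-point curves (B); TR-FRET at Km ATP, 0.5 nM Btk, gave Ki(app)-derived IC50 (A).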

TEC = molecular target: T3, TEC (Homo sapiens, UniProt P42680); assay: Inhibition of a panel of kinases (in vitro HotSpot kinase assay, 33P-ATP, 1 μM ATP); settings: for IC50: HotSpot kinase assay, 1 μM ATP; for TEC/Btk: ratio of TEC IC50 to Btk IC50 (selectivity)
T3 sequence (P42680 1-631): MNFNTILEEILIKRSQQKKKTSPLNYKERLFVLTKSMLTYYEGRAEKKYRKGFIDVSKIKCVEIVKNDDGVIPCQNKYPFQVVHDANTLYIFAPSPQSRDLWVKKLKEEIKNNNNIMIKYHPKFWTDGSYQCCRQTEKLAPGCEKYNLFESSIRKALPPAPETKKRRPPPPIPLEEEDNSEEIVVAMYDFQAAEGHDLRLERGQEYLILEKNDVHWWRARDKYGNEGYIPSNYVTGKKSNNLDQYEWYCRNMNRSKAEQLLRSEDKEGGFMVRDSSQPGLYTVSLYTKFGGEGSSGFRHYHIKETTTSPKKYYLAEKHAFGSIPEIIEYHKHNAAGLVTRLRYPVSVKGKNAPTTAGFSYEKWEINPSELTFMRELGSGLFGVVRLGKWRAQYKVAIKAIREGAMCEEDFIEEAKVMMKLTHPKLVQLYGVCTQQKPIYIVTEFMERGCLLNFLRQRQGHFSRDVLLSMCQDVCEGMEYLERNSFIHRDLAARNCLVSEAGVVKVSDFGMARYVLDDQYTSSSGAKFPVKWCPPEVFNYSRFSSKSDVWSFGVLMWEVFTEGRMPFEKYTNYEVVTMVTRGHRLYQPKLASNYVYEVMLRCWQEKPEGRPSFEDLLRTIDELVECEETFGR
How it was run: as §1

T2 sequence (Q06187 whole entry): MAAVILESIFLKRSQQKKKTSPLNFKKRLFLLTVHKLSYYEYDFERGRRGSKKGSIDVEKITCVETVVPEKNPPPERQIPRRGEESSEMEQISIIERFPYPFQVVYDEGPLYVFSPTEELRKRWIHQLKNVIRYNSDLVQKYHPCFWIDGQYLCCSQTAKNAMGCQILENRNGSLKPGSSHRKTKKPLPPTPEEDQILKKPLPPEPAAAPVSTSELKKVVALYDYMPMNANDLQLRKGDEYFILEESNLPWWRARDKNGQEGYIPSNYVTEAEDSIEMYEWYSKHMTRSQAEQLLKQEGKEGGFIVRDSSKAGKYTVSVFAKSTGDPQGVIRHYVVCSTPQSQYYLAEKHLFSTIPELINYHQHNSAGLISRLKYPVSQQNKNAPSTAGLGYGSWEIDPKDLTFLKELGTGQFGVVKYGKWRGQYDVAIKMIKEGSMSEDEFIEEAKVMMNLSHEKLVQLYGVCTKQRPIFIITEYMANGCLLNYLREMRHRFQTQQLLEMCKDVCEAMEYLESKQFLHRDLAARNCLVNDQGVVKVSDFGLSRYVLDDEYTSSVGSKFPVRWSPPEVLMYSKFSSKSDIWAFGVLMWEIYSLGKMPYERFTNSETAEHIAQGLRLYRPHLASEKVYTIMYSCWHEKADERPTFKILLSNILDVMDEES

Row | SMILES | IC50 (panel of kinases) | IC50 (Btk) | IC50 (TEC) | TEC/Btk (TEC)
1 | CC(C)(C)c1nc(C(=O)NCc2ccc(-c3ccnc4[nH]nc(C5=CCNC5)c34)cc2F)no1 [Example 280, 5-tert-butyl-N-({4-[3-(2,5-dihydro-1H-pyrrol-3-yl)-1H-pyrazolo[3,4-b]pyridin-4-yl]-2-fluorophenyl}methyl)-1,2,4-oxadiazole-3-carboxamide] | 1720 nM | 8.84 nM | 2150 nM | 243
2 | CN(C)C(=O)N1CC[C@@H](Oc2n[nH]c3nccc(-c4ccc(CNC(=O)c5noc(C(C)(C)C)n5)c(F)c4)c23)C1 [Example 282, 5-tert-butyl-N-{[4-(3-{[(3R)-1-(dimethylcarbamoyl)pyrroli-din-3-yl]oxy}-1H-pyrazolo[3,4-b]pyridin-4-yl)-2-fluorophenyl]methyl}-1,2,4-oxadiazole-3-carboxamide] | 6080 nM | 10.4 nM | 5240 nM | 504
3 | CC(C)(C)c1noc(C(=O)NCc2ccc(-c3ccnc4[nH]nc(OC5CCNC5)c34)cc2F)n1 (centres unmarked) [Example 283, 3-tert-butyl-N-[(2-fluoro-4-{3-[(pyrrolidin-3-yl)oxy]-1H-pyrazolo[3,4-b]pyridin-4-yl}phenyl)methyl]-1,2,4-oxadiazole-5-carboxamide] | 2970 nM | 10.9 nM | 7160 nM | 
4 | CC(=O)N1CC[C@H](Oc2n[nH]c3nccc(-c4ccc(CNC(=O)c5nc(C(C)(C)C)no5)c(F)c4)c23)C1 [Example 284, (S)-N-[(4-{3-[(1-acetylpyrrolidin-3-yl)oxy]-1H-pyrazolo[3,4-b]pyridin-4-yl}-2-fluorophenyl)methyl]-3-tert-butyl-1,2,4-oxadiazole-5-carboxamide] | 2920 nM | 3.19 nM | 2250 nM | 

These reach a lower IC50 (panel of kinases). Values come first.

Row | IC50 (panel of kinases) | IC50 (Btk) | IC50 (TEC) | TEC/Btk (TEC) | SMILES
5 | 158 nM | 0.559 nM | 338 nM | 605 | C=CC(=O)N1CCC(Cc2n[nH]c3nccc(-c4ccc(CNC(=O)c5noc(C(C)(C)C)n5)c(F)c4)c23)C1 (centres unmarked) [Example 275, 5-tert-butyl-N-{[2-fluoro-4-(3-{[1-(prop-2-enoyl)pyrrolidin-3-yl]methyl}-1H-pyrazolo[3,4-b]pyridin-4-yl)phenyl]methyl}-1,2,4-oxadiazole-3-carboxamide]
6 | 8.95 nM | 0.0922 nM | 14.9 nM | 162 | C=CC(=O)N1CCC(c2n[nH]c3nccc(-c4ccc(CNC(=O)c5noc(C(C)(C)C)n5)c(F)c4)c23)C1 (centres unmarked) [Example 279, 5-tert-butyl-N-[(2-fluoro-4-{3-[1-(prop-2-enoyl)pyrrolidin-3-yl]-1H-pyrazolo[3,4-b]pyridin-4-yl}phenyl)methyl]-1,2,4-oxadiazole-3-carboxamide]
7 | 2.98 nM | 0.0568 nM | 4.92 nM | 87 | C=CC(=O)N1CC=C(c2n[nH]c3nccc(-c4ccc(CNC(=O)c5noc(C(C)(C)C)n5)c(F)c4)c23)C1 [Example 281, 5-tert-butyl-N-[(2-fluoro-4-{3-[1-(prop-2-enoyl)-2,5-dihydro-1H-pyrrol-3-yl]-1H-pyrazolo[3,4-b]pyridin-4-yl}phenyl)methyl]-1,2,4-oxadiazole-3-carboxamide]
8 | 1510 nM | 482 nM | 1830 nM |  | C=CC(=O)N1CC[C@@H](Nc2n[nH]c3nccc(-c4ccnc(N5CCn6c(cc7c6CC(C)(C)C7)C5=O)c4C=O)c23)C1 [Example 286, (R)-2-(7,7-dimethyl-1-oxo-1,3,4,6,7,8-hexahydro-2H-cyclopenta[4,5]pyrrolo[1,2-a]pyrazin-2-yl)-4-(3-{[1-(prop-2-enoyl)pyrrolidin-3-yl]amino}-1H-pyrazolo[3,4-b]pyridin-4-yl)pyridine-3-carbaldehyde]
9 | 46.1 nM | 1.76 nM | 59.4 nM |  | C=CC(=O)N1CCC[C@@H](Nc2n[nH]c3nccc(-c4ccc(CNC(=O)c5cc(CC(C)C)on5)c(F)c4)c23)[C@H]1C [Example 293, N-{[2-fluoro-4-(3-{[(2R,3R)-2-methyl-1-(prop-2-enoyl)piperidin-3-yl]amino}-1H-pyrazolo[3,4-b]pyridin-4-yl)phenyl]methyl}-5-(2-methylpropyl)-1,2-oxazole-3-carboxamide]
